Test results: publication PMC10247784, “Physiological activation of human and mouse bitter taste receptors by bile acids” (Communications Biology, 2023)
Several values for one entry are separate records, joined by “and”; a condition that tells them apart may be missing. Equal entries are not always repeated.

Target: T1, human TAS2R1 (Homo sapiens, UniProt Q9NYW7)
T1 construct: expressed in transfected cells; host or cells: HEK293T-Gα16gust44
T1 sequence (Q9NYW7 1-299): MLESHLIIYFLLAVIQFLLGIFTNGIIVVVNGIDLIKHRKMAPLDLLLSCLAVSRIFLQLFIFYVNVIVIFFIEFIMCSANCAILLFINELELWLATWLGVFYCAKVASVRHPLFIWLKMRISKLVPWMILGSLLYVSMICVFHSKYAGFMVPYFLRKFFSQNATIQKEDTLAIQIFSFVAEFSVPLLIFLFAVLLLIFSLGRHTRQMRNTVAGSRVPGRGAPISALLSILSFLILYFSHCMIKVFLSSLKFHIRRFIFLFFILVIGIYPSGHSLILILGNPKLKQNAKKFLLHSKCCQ
Assay: Calcium imaging assay (FLIPR), HEK293T-Gα16gust44 cells transfected with human TAS2R1
Format: cell-based
Summary of the method: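 Fluo-4 calcium responses; ΔF/F corrected for mock transfection and buffer control; triplicate independent dose-response runs; p < 0.01 threshold.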

## C[C@H](CCC(=O)O)[C@H]1CC[C@H]2[C@@H]3CC[C@@H]4C[C@H](O)CC[C@]4(C)[C@H]3C[C@H](O)[C@]12C [Deoxycholic Acid, deoxycholic acid]
TAS2R1, bile acids, mean
  Efficacy = maximal amplitude (ΔF/F): 0.1101
TAS2R1, bile acids, single replicates, listed as DCA
  Efficacy (maximal amplitude ΔF/F), individual data points: 0.109 and 0.1181 and 0.1032
Time 0 s (second time grid)
  RLU: 0 RLU
Time 2 s
  RLU: 0.493 RLU
Time 4 s
  RLU: 31.4027 RLU
Time 6 s
  RLU: 3.521 RLU
Time 8 s
  RLU: -1.537 RLU
Time 12 s
  RLU: 14.8432 RLU
Time 14 s
  RLU: 0.09676 RLU
Time 16 s
  RLU: 17.8407 RLU
Time 18 s
  RLU: -2.035 RLU
Time 18.781 s
  RLU: -64.4563 RLU
Time 20.781 s
  RLU: -74.4446 RLU
Time 22.781 s
  RLU: -47.6337 RLU
Time 24.781 s
  RLU: -3.248 RLU
Time 26.781 s
  RLU: 25.7142 RLU
Time 28.781 s
  RLU: 115.435 RLU
Time 30.781 s
  RLU: 160.244 RLU
Time 32.781 s
  RLU: 224.68 RLU
Time 34.781 s
  RLU: 265.794 RLU
Time 36.781 s
  RLU: 285.115 RLU
Time 38.781 s
  RLU: 296.049 RLU
Time 40.781 s
  RLU: 331.471 RLU
Time 42.781 s
  RLU: 355.405 RLU
Time 44.781 s
  RLU: 351.369 RLU
Time 46.781 s
  RLU: 370.806 RLU
Time 48.781 s
  RLU: 359.225 RLU
Time 50.781 s
  RLU: 385.526 RLU
Time 52.781 s
  RLU: 383.683 RLU
Time 54.781 s
  RLU: 370.149 RLU
Time 56.781 s
  RLU: 369.818 RLU
Time 58.781 s
  RLU: 385.269 RLU
Time 60.781 s
  RLU: 378.237 RLU
Time 62.781 s
  RLU: 433.32 RLU
Time 64.781 s
  RLU: 415.898 RLU
Time 66.781 s
  RLU: 407.815 RLU
Time 68.781 s
  RLU: 409.61 RLU
Time 70.781 s
  RLU: 404.287 RLU
Time 72.781 s
  RLU: 403.47 RLU
Time 74.781 s
  RLU: 421.511 RLU
Time 76.781 s
  RLU: 407.874 RLU
Time 78.781 s
  RLU: 402.577 RLU
Time 80.781 s
  RLU: 400.686 RLU
Time 82.781 s
  RLU: 411.74 RLU
Time 84.781 s
  RLU: 413.712 RLU
Time 86.781 s
  RLU: 386.975 RLU
Time 88.781 s
  RLU: 406.471 RLU
Time 90.781 s
  RLU: 396.647 RLU
Time 92.781 s
  RLU: 377.402 RLU
Time 94.781 s
  RLU: 398.73 RLU
Time 96.781 s
  RLU: 400.692 RLU
Time 98.781 s
  RLU: 408.833 RLU
Time 100.781 s
  RLU: 412.535 RLU
Time 102.781 s
  RLU: 404.992 RLU
Time 104.781 s
  RLU: 431.288 RLU
Time 106.781 s
  RLU: 394.532 RLU
Time 108.781 s
  RLU: 409.236 RLU
Time 110.781 s
  RLU: 378.853 RLU
Time 112.781 s
  RLU: 368.351 RLU
Time 114.781 s
  RLU: 393.07 RLU
Time 116.781 s
  RLU: 389.914 RLU
Time 118.781 s
  RLU: 397.129 RLU
Time 120.781 s
  RLU: 358.058 RLU
Time 122.781 s
  RLU: 360.498 RLU
Time 124.781 s
  RLU: 357.848 RLU
Time 126.781 s
  RLU: 357.113 RLU
Time 128.781 s
  RLU: 380.58 RLU
Time 130.781 s
  RLU: 362.729 RLU
Time 132.781 s
  RLU: 375.09 RLU
Time 134.781 s
  RLU: 362.515 RLU
Time 136.781 s
  RLU: 330.764 RLU
Time 137.547 s
  RLU: 319.55 RLU
Time 143.547 s
  RLU: 341.925 RLU
Time 149.547 s
  RLU: 313.832 RLU
Time 155.547 s
  RLU: 317.65 RLU
Time 161.547 s
  RLU: 302.763 RLU
Time 167.547 s
  RLU: 279.035 RLU
Time 173.547 s
  RLU: 260.648 RLU
Time 179.547 s
  RLU: 266.358 RLU
Time 185.547 s
  RLU: 253.1 RLU
Time 191.547 s
  RLU: 247.046 RLU
Time 197.547 s
  RLU: 220.468 RLU
Time 203.547 s
  RLU: 236.267 RLU
Time 209.547 s
  RLU: 247.998 RLU
Time 215.547 s
  RLU: 197.659 RLU
Time 221.547 s
  RLU: 234.297 RLU
Time 227.547 s
  RLU: 187.946 RLU
Time 233.547 s
  RLU: 202.574 RLU
Time 239.547 s
  RLU: 164.983 RLU
Time 245.547 s
  RLU: 168.248 RLU
Time 293.547 s
  RLU: 151.715 RLU
Time 299.547 s
  RLU: 145.558 RLU
Calcium trace, sheet TAS2R1, Time 305.547 s
  RLU: 138.546 RLU
Calcium trace, sheet TAS2R1, Time 311.547 s
  RLU: 132.623 RLU
Calcium trace, sheet TAS2R1, Time 317.547 s
  RLU: 129.733 RLU
Calcium trace, sheet TAS2R1, Time 323.547 s
  RLU: 134.84 RLU
Calcium trace, sheet TAS2R1, Time 329.547 s
  RLU: 140.029 RLU
Calcium trace, sheet TAS2R1, Time 335.547 s
  RLU: 144.9 RLU
Calcium trace, sheet TAS2R1, Time 341.547 s
  RLU: 152.792 RLU
Calcium trace, sheet TAS2R1, Time 347.547 s
  RLU: 132.414 RLU
Calcium trace, sheet TAS2R1, Time 353.547 s
  RLU: 137.138 RLU
Calcium trace, sheet TAS2R1, Time 359.547 s
  RLU: 131.392 RLU
Calculated where receptor saturation was reached
  EC50: 6.1 ± 0.6 µM
Lowest concentration with significantly increased fluorescence vs empty vector (p < 0.01)
  Activation threshold concentration TAS2R1: 3 µM and 3.00 µM
